This note sets out measurements from US10723741B1, “DNA polymerase IIIC inhibitors and use thereof” (Acurx Pharmaceuticals, LLC, priority 2018, dated 2020).

≈ marks a conversion by molar mass, not a printed value.

Type in all cases: cell-based
Assay [1] concerns Enterococcus faecium ATCC 700221 (VRE). The assay can be described thus: Broth microdilution MIC, E. faecium ATCC 700221 (VRE). The following applies: Enterococcus faecium; broth microdilution, 37° C., 20 hours; read-out: MIC E. faecium ATCC 700221 (VRE). The source says: (§1) Bacteria tested are Staphylococcus aureus NRS384 (a methicillin-resistant Staphylococcus aureus, MRSA), Staphylococcus aureus ATCC 29213 (a methicillin-sensitive Staphylococcus aureus, MSSA), Streptococcus pneumoniae ATCC 49619, Enterococcus faecalis ATCC 29212, Enterococcus faecium ATCC 700221 (a vancomycin-resistant enterococcus, VRE), Bacillus subtilis ATCC 6633, and Escherichia coli ATCC 25922.
(§2) Staphylococcus aureus NRS384 was obtained from NARSA (Network on Antimicrobial Resistance in Staphylococcus aureus, now the strain collection is in BEI resources). Other bacterial isolates were from ATCC (The American Type Culture Collection). Upon receiving the bacteria samples from aforementioned institutes, the bacteria were cultured according to the manuals provided by the suppliers. The bacteria were stored in 25% glycerol (final concentration) at −80° C.
(§3) On the day of testing, the compounds were dissolved in pure DMSO (Sigma 276855-1L) to […] as stock. In a v-bottom 96-well plate (Axygen-wipp02280), 20 μl DMSO was added into well 2 to well 12 by manual pipetting. Into well 1, 12.8 μL of compound DMSO stock (20 mg/ml) was added and mixed with 27.2 μl DMSO by pipetting. Two fold serial dilutions were performed by transferring and mixing 20 μl of solution from well 1 to well 2, then well 2 to well 3 and so forth until well 11. The well 12 was loaded with 20 μl DMSO without compounds. This was drug ‘mother plate’. From well 1 to well 12, the drug concentrations in the mother plate were […] in DMSO. A multi-pipette was used to perform the serial dilutions. The concentration may be adjusted according to the potency of the compounds. An Echo® Acoustic liquid handling system may be used to replace manual pipetting to make the daughter plates.
(§4) One day prior to the day of MIC testing, bacterial strains were streaked out from −80° C. glycerol stocks onto MHA plates and incubated at 37° C. for 20 hours. Streptococcus pneumoniae was streaked on blood agar and incubated at 37° C. in 5% CO2. The single colonies were picked by using an inoculation loop (Greiner-731175) and suspended into 5 ml sterile saline. The turbidity of the suspension was adjusted to 0.10 (Siemens MicroScan turbidity meter), equal to ˜1.0×10^8 cfu/ml. The bacterial suspension was diluted 200× in corresponding test medium (Table 1). This was used to inoculate daughter plates.
(§5) For preparing u-bottom 96-well ‘daughter plates’ (Costar 3788), an aliquot of 1 μl solution from mother plate was then replicating transferred into the daughter plate using a multi-pipette.
(§6) An aliquot of 99 μl of the bacterial suspension was inoculated into each well of the daughter plates using a multi-pipette. Each well contained ˜5.0×10^5 cfu/ml bacteria, 1% DMSO and serially diluted compounds at 64, 32, 16, 8, 4, 2, 1, 0.5, 0.25, 0.125, 0.0625 and 0 μg/ml from well 1 to well 12 respectively, in 100 μl corresponding test medium.
(§7) The plates were incubated in ambient atmosphere and in a 37° C. incubator for 20 hours.
(§8) Compounds of the present invention were tested for antibacterial activity against a variety of bacterial organism including Bacillus subtilis, Staphylococcus aureus, Enterococcus faecalis, Enterococcus faecium, Streptococcus pneumoniae and Escherichia coli. […] Compounds described in Examples 2, 44, 53, 56, 90, 134, 212, 213, 214, 218, 222, 304, 305, and 307 had MIC of ≤1 μg/ml against S. aureus NRS 384 (MRSA) (μg/ml) and E. faecium ATCC 700221 (VRE) (μg/ml).

The test system of assay [2] is Enterococcus faecalis ATCC 29212. Description: Broth microdilution MIC, E. faecalis ATCC 29212. The following applies: ATCC29212, broth microdilution, 37° C., 20 hours, read-out: MIC E. faecalis ATCC 29212.
Description: as §1, §2, §3, §4, §5, §6, §7, §8
In general terms: Dilution methods test growth across graded concentrations, often in twofold steps.

Assay [3] has as its system Bacillus subtilis ATCC 6633. The assay can be described thus: Broth microdilution MIC, B. subtilis ATCC 6633. The following applies: ATCC6633, broth microdilution, 37° C., 20 hours, read-out: MIC B. subtilis ATCC 6633.
Description: as §1, §2, §3, §4, §5, §6, §7, §8

Assay [4] has as its system Streptococcus pneumoniae ATCC 49619. The assay can be described thus: Broth microdilution MIC, S. pneumoniae ATCC 49619. The following applies: ATCC49619, broth microdilution, 37° C., 20 hours, read-out: MIC S. pneumoniae ATCC 49619.
Description: as §1, §2, §3, §4, §5, §6, §7, §8

Assay [5] deals with Escherichia coli ATCC 25922. The assay can be described thus: Broth microdilution MIC, E. coli ATCC 25922 (MHIIB w & w/o 4 mM EDTA). The following applies: broth microdilution, 37° C., 20 hours; for MIC: Escherichia coli, ATCC25922, without EDTA, read-out: MIC E. coli ATCC 25922; for MIC E. coli ATCC 25922 + 4 mM EDTA: with 4 mM EDTA.
Description: as §1, §2, §3, §4, §5, §6, §7, §8

Assay [6] concerns Staphylococcus aureus NRS384 (MRSA). Description: Broth microdilution MIC, S. aureus NRS384 (MRSA). The following applies: Staphylococcus aureus; broth microdilution, 37° C., 20 hours; read-out: MIC NRS 384 (MRSA).
Description: as §1, §2, §3, §4, §5, §6, §7, §8

Assay [7] relates to Staphylococcus aureus ATCC 29213 (MSSA). The assay can be described thus: Broth microdilution MIC, S. aureus ATCC 29213 (MSSA). The following applies: broth microdilution, 37° C., 20 hours, read-out: MIC S. aureus ATCC 29213 (MSSA).
Description: as §1, §2, §3, §4, §5, §6, §7, §8

As to `Cn1ncc2nc(NCc3ccc(Cl)c(F)c3)[nH]c(=O)c21` [Compound 1, 5-((4-chloro-3-fluorobenzyl)amino)-1-methyl-1H-pyrazolo[4,3-d]pyrimidin-7(6H)-one], the MIC – broadly, the lowest concentration that inhibits growth of the organism – is 8 µg/mL (≈ 26 µM) in assay [1]; 16 µg/mL (≈ 52 µM) in assay [2]; 4 µg/mL (≈ 13 µM) in assay [3]; 4 µg/mL (≈ 13 µM) in assay [4]; greater than 64 µg/mL in assay [5]; 8 µg/mL (≈ 26 µM) in assay [6]. Besides, the minimal inhibitory concentration (MIC) in assay [7] was found to be 8 µg/mL (≈ 26 µM). In addition, in assay [5], the “MIC E. coli ATCC 25922 + 4 mM EDTA” value turned out to be 32 µg/mL.

On to `Cn1ncc2nc(NCc3ccccc3)[nH]c(=O)c21` [Compound 3, 5-(Benzylamino)-1-methyl-1H-pyrazolo[4,3-d]pyrimidin-7(6H)-one], for which the MIC in assay [1] was 32 µg/mL (≈ 125 µM); in assay [2], 64 µg/mL (≈ 251 µM); in assay [3], 32 µg/mL (≈ 125 µM); in assay [4] it was 32 µg/mL (≈ 125 µM); in assay [5] it was greater than 64 µg/mL; in assay [6] it was 64 µg/mL (≈ 251 µM). Also, the MIC in assay [7] was 32 µg/mL (≈ 125 µM). Besides, the “MIC E. coli ATCC 25922 + 4 mM EDTA” value in assay [5] is greater than 64 µg/mL.

Turning to `Cn1ncc2nc(NCc3ccccn3)[nH]c(=O)c21` [Compound 4, 1-Methyl-5-((pyridin-2-ylmethyl)amino)-1H-pyrazolo[4,3-d]pyrimidin-7(6H)-one], the MIC in assay [1], in assay [2], in assay [3], in assay [4], in assay [5] and in assay [6] was greater than 64 µg/mL each time. The MIC in assay [7] was greater than 64 µg/mL. In assay [5], the “MIC E. coli ATCC 25922 + 4 mM EDTA” value was greater than 64 µg/mL.

As for `Cn1ncc2nc(NCc3cccnc3)[nH]c(=O)c21` [Compound 5, 1-Methyl-5-(3-pyridylmethylamino)-6H-pyrazolo[4,3-d]pyrimidin-7-one], the MIC in assay [1], in assay [2], in assay [3], in assay [4], in assay [5] and in assay [6] was greater than 64 µg/mL throughout. Moreover, the MIC in assay [7] was greater than 64 µg/mL. Further, the “MIC E. coli ATCC 25922 + 4 mM EDTA” value in assay [5] is greater than 64 µg/mL.

As to `Cn1ncc2nc(NCc3ccncc3)[nH]c(=O)c21` [Compound 6, 1-Methyl-5-((pyridin-4-ylmethyl)amino)-1H-pyrazolo[4,3-d]pyrimidin-7(6H)-one], the MIC in assay [1], in assay [2], in assay [3], in assay [4], in assay [5] and in assay [6] was greater than 64 µg/mL each time. Further, in assay [7], the MIC was greater than 64 µg/mL. For the same molecule, the “MIC E. coli ATCC 25922 + 4 mM EDTA” value in assay [5] is greater than 64 µg/mL.

Turning to `Cn1ncc2nc(NCc3ccc(F)c(F)c3)[nH]c(=O)c21` [Compound 7, 5-((3,4-Difluorobenzyl)amino)-1-methyl-1H-pyrazolo[4,3-d]pyrimidin-7(6H)-one], the MIC in assay [1] was 8 µg/mL (≈ 27.5 µM); in assay [2] it was 16 µg/mL (≈ 54.9 µM); in assay [3], 8 µg/mL (≈ 27.5 µM); in assay [4], 8 µg/mL (≈ 27.5 µM); in assay [5], greater than 64 µg/mL; in assay [6], 16 µg/mL (≈ 54.9 µM). Further, the MIC in assay [7] came to 16 µg/mL (≈ 54.9 µM). For the same molecule, the “MIC E. coli ATCC 25922 + 4 mM EDTA” value in assay [5] was greater than 64 µg/mL.

Regarding `Cn1ncc2nc(NCCc3ccc(Cl)c(Cl)c3)[nH]c(=O)c21` [Compound 8, 5-((3,4-Dichlorophenethyl)amino)-1-methyl-1H-pyrazolo[4,3-d]pyrimidin-7(6H)-one], the MIC in assay [1], in assay [2], in assay [3], in assay [4], in assay [5] and in assay [6] was greater than 64 µg/mL throughout. Moreover, the MIC in assay [7] was greater than 64 µg/mL. Further, the “MIC E. coli ATCC 25922 + 4 mM EDTA” value in assay [5] was greater than 64 µg/mL.

In the case of `Cn1ncc2nc(Nc3ccc(Cl)c(Cl)c3)[nH]c(=O)c21` [Compound 9, 5-((3,4-Dichlorophenyl)amino)-1-methyl-1H-pyrazolo[4,3-d]pyrimidin-7(6H)-one], the MIC in assay [1], in assay [2], in assay [3], in assay [4], in assay [5] and in assay [6] was greater than 64 µg/mL each time. Moreover, the minimal inhibitory concentration (MIC) in assay [7] was greater than 64 µg/mL. The “MIC E. coli ATCC 25922 + 4 mM EDTA” value in assay [5] is greater than 64 µg/mL.

`Cn1ncc2nc(Nc3ccccc3)[nH]c(=O)c21` [Compound 10, 1-Methyl-5-(phenylamino)-1H-pyrazolo[4,3-d]pyrimidin-7(6H)-one]: the MIC in assay [1], in assay [2], in assay [3], in assay [4], in assay [5] and in assay [6] was greater than 64 µg/mL each time. Besides, the MIC in assay [7] was greater than 64 µg/mL. Also, the “MIC E. coli ATCC 25922 + 4 mM EDTA” value in assay [5] was greater than 64 µg/mL.

`Cn1ncc2nc(NCc3ncccn3)[nH]c(=O)c21` [Compound 11, 1-Methyl-5-((pyrimidin-2-ylmethyl)amino)-1H-pyrazolo[4,3-d]pyrimidin-7(6H)-one]: the MIC in assay [1], in assay [2], in assay [3], in assay [4], in assay [5] and in assay [6] was greater than 64 µg/mL in each case. In assay [7], the MIC was greater than 64 µg/mL. In assay [5], the “MIC E. coli ATCC 25922 + 4 mM EDTA” value is greater than 64 µg/mL.

For `Cn1ncc2nc(NCc3cnccn3)[nH]c(=O)c21` [Compound 12, 1-Methyl-5-((pyrazin-2-ylmethyl)amino)-1H-pyrazolo[4,3-d]pyrimidin-7(6H)-one], the MIC in assay [1], in assay [2], in assay [3], in assay [4], in assay [5] and in assay [6] was greater than 64 µg/mL in each case. For the same molecule, the MIC in assay [7] was greater than 64 µg/mL. Besides, in assay [5], the “MIC E. coli ATCC 25922 + 4 mM EDTA” value is greater than 64 µg/mL.

As for `Cn1ncc2nc(NCc3ccc4[nH]ncc4c3)[nH]c(=O)c21` [Compound 13, 5-(((1H-indazol-5-yl)methyl)amino)-1-methyl-1H-pyrazolo[4,3-d]pyrimidin-7(6H)-one], the MIC in assay [1], in assay [2], in assay [3], in assay [4], in assay [5] and in assay [6] was greater than 64 µg/mL in each case. Besides, the MIC in assay [7] is greater than 64 µg/mL. For the same molecule, the “MIC E. coli ATCC 25922 + 4 mM EDTA” value in assay [5] was greater than 64 µg/mL.

For `Cn1ncc2nc(NCc3ccc4[nH]ccc4c3)[nH]c(=O)c21` [Compound 14, 5-(((1H-indol-5-yl)methyl)amino)-1-methyl-1H-pyrazolo[4,3-d]pyrimidin-7(6H)-one], the minimal inhibitory concentration (MIC) in assay [1], in assay [2], in assay [3], in assay [4], in assay [5] and in assay [6] was greater than 64 µg/mL throughout. The MIC in assay [7] was greater than 64 µg/mL. Besides, the “MIC E. coli ATCC 25922 + 4 mM EDTA” value in assay [5] is greater than 64 µg/mL.
